Here are results for one compound from patent US20260049062A1, “SARS-COV-2 INHIBITORS FOR TREATING CORONAVIRUS INFECTIONS” (Insilico Medicine IP Limited, priority 2021, published 2026).

This test concerns SARS-CoV-2. In words: In vitro antiviral cell-based assay (live SARS-CoV-2), plaque reduction assay in VeroE6 cells. The settings on record: Severe acute respiratory syndrome coronavirus 2, Vero, read-out: Vero EC50 (μM). For orientation: Plaque reduction counts the foci of infection that form in a cell layer.

The term EC50 denotes the midpoint of the concentration-response curve. Consider `CC(C(=O)NC1CCC(F)(F)CC1)(c1cncnc1)N(C(=O)[C@H](F)Cl)c1ccc(-c2cncs2)cc1` (single isomer, unassigned) [Example 1a], for which the EC50 lay in the range of 0.1 to 1 µM.
